In patent US20220125897A1, “Antithrombin-III Treatment of Traumatic Brain Injury” (THE TRUSTEES OF THE UNIVERSITY OF PENNSYLVANIA, priority 2020, published 2022):

Experiments:
[1] = test system: CD1 mice, controlled cortical impact (CCI) severe TBI model; experiment: Morris water maze cued learning trials; type: in vivo
Protocol: (§1) Experimental procedures were conducted with the approval of the University of Pennsylvania Institutional Animal Care and Use Committee. CD1 adult male mice (25-30 g) (Charles River Laboratories, Wilmington, Mass.) were acclimatized in standard housing with water and chow ad libitum for 7 days before experiments after which they underwent sham craniotomy or craniotomy accompanied by controlled cortical impact (CCI), a well-validated severe TBI rodent model (Pascual et al., Am J Surg. 2013;206(6):840-846; Smith et al., J Neurotrauma. 1995; 12(2):169-178). Mice were anesthetized with intraperitoneal ketamine (Hospira, Lake Forest, Ill.), xylazine (Akorn, Decatur, Ill.), and acepromazine (Boehringer Ingelheim, St. Joseph, Mo.) (100, 10, 1 mg/kg, respectively) followed by subcutaneous bupivacaine (0.5 mg/mL) for longer-term analgesia. After creation of a left-sided, 4-mm craniotomy between bregma and lambda sutures, the exposed left parietotemporal cortex was injured via a controlled cortical impactor (AMS201; AmScien Instruments, Richmond, Va.). Controlled cortical impact settings (3-mm-diameter impactor tip, impact velocity of 6 m/s, and cortical deformation depth of 1 mm) replicated severe TBI (Smith et al., J Neurotrauma. 1995; 12(2):169-178). Rodents were then randomly allocated to receive either: (1) intravenous (via femoral vein) pharmaceutical grade AT-III (250 IU/kg, donated by Grifols S. A., Durham, N.C.) or (2) an equal volume of normal saline IV (0.9% NS; Baxter; Deerfield, Ill.) as a vehicle (VEH). Doses were administered 0.5 and 24 hours after CCI (FIG. 1) as determined by previous published reports and the manufacturer's recommendations (ElSaadani et al., J Trauma Acute Care Surg. 2021; 90(2):274-280; Uchiba et al., Thromb Res. 1998; 89(5):233-241; Uchiba et al., Semin Thromb Hemost. 1997; 23(6):583-590).
Fifteen mice (ElSaadani et al., J Trauma Acute Care Surg. 2021; 90(2):274-280) were randomized into three groups: (1) sham craniotomy (no CCI) plus VEH (SHAM, n=5), (2) TBI and VEH (CCI-VEH, n=5), and (3) TBI and AT-III (CCI−AT-III, n=5).
(§2) Learning and memory were evaluated in a Morris water maze (MWM) using a previously published protocol (Vorhees et al., Nat Protoc. 2006; 1(2):848-858; Jacovides et al., J Trauma Acute Care Surg. 2019; 87(3):552-558). After a recovery period of 6 days, each animal underwent daily. MWM trials of learning and memory for 9 consecutive days. […] All swimming trials were conducted and scored by the same operator, at the same time of day on all experiment days incorporating a computerized video-tracking and recording system over the pool to facilitate analysis (Ethovision; Noldus, Leesburg, Va.). […]

[2] = test system: CD1 mice, controlled cortical impact (CCI) or sham craniotomy; experiment: Brain water content (brain edema, wet-to-dry ratio); type: in vivo; conditions: for Contralateral (%) Mean brain water content / Contralateral (%) Median brain water content / Ipsilateral (%) Mean brain water content / Ipsilateral (%) Median brain water content / Ratio (ipsi/contra) brain water content: 48 hours after CCI; for cerebral edema as compared to CCI+VEH: 48 hours, p>0.05
Protocol: (§3) Procedures received approval from the University of Pennsylvania Institutional Animal Care and Use Committee. CD1 adult male mice (25-30 g) (Charles River Laboratories; Wilmington, Mass.) were acclimated in standard housing with ad libitum water and chow for 5 days before experiments and immediately after recovery from brain injury. Mice underwent controlled cortical impact (CCI) or sham craniotomy (SHAM) and then received one of three agents: 1) subcutaneous enoxaparin (ENX, 1.5 mg/kg) (Winthrop, Sanofi-Aventis; Bridgewater, N.J.); intravenous (femoral vein) pharmaceutical grade antithrombin-III (AT-III, 250 IU/kg, donated by Grifols S.A. (Durham, N.C.); or 3) an equal volume of IV normal saline (0.9% NS, Baxter; Deerfield, Ill.). Doses were administered 0.5 and 24 hours after the CCI (FIG. 1).
(§4) Seventy-one (71) mice were randomly assigned to one of six groups: 1) sham craniotomy and vehicle (VH, 0.9% normal saline, Baxter Healthcare Corporation; Deerfield, Ill.), (SHAM +VEH, n=9); 2) sham craniotomy and ENX (SHAM+ENX, n=8); 3) sham craniotomy and AT-III (SHAM+AT-III, n=9); 4) TBI and vehicle (CCI+VEH, n=19); TBI and ENX (CCI+ENX, n=13); and 6) TBI and AT-III (CCI+AT-III, n=13).
(§5) CCI was used to replicate TBI through a well-validated rodent model (16, 17). Briefly, on day 1, mice were anesthetized with intraperitoneal ketamine (Hospira; Lake Forest, Ill.), xylazine (Alcorn; Decatur, Ill.), and acepromazine (Boehringer Ingelheim; St. Joseph, Mo.) (KXA: 100, 10, 1 mg/kg, respectively) and place prone in a stereotactic device. After scalp exposure, a left-sided 4-mm craniotomy was created between bregma and lambda structures using a dental drill (Henry Schein; Melville, N.Y.) without violating the dura.
Forty-eight hours after CCI, mice were sacrificed and excised brains were separated into injured (ipsilateral) and uninjured (contralateral) hemispheres. Wet weight (WW) was immediately assessed. Dry weight (DW) was assessed after 72 hours of dehydration at 70° C. Tissue water content was calculated using wet-to-dry ratios: % water content=100×(WW−DW)/WW.

[3] = test system: CD1 mice, controlled cortical impact (CCI) severe TBI model; experiment: Garcia Neurological Test (GNT); type: in vivo; conditions: injured (CCI) mice, 24 or 48 hour post-TBI; maximum 18 points; ±SEM
Protocol: as §3, with “1). […]” for “1).”
(§6) Animal body weights (BW) were obtained just before (W0h) as well as 24 and 48 hours after CCI with animal weight loss expressed as a ratio: (W0h-W24h or W48h)/W0h×100%. Murine neurologic function was assessed by the modified Stroke Garcia Neurologic Test (GNT) assessing motor, sensory, reflex, and balance ability at 24 hours and 48 hours after TBI. […]

[4] = Body weight loss after CCI; type: in vivo; conditions: CCI mice, 48 hours after TBI; (W0h-W48h)/W0h×100%; ±SEM
Protocol: as §3, with “1). […]” for “1).”
as §6

[5] = test system: CD1 mice, controlled cortical impact (CCI) severe TBI model; experiment: Pial intravital microscopy: in vivo LEU/EC interactions; conditions: pial penumbral microcirculation, 48 hours after CCI, doses 0.5 and 24 hours after CCI, ±SEM
Protocol: as §3, §4, §5
In vivo assessment of cerebral microcirculation using pial intravital microscopy was performed 48 hours after CCI as described previously, as this is the optimal time to observe peak leukocyte mobilization to the BBB penumbra after brain injury. Under KXA anesthesia, the right jugular vein was cannulated and a second 2.5 mm craniotomy was created immediately anterior to the first and covered with a 5 mm coverslip (Fisher Scientific; Waltham, Mass.). […]
Video data captured at 590 nm λ were imported into analysis software (NIS-Elements, Nikon Instruments; Melville, N.Y.) and LEU/EC interactions were counted by a blinded observer quantifying the following parameters: 1) LEU transit: mean number of labelled EU crossing a 100 μm long venular segment in 60 seconds; and 2) LEU adhesion: number of LEU stationary for at least 30 seconds during the recording period. Fluorescently labelled spherical cells measuring 7 to 12 μm were counted as LEU and interactions were reported as the number of cells/100 μm per minute (FIGS. 2A and 2B).

[6] = test system: CD1 mice, controlled cortical impact (CCI) severe TBI model; experiment: Pial intravital microscopy: FITC-albumin leakage (microvascular permeability); type: in vivo; conditions: for Cerebrovascular FITC-albumin leakage: 48 hours after CCI, doses 0.5 and 24 hours after CCI, ±SEM
Protocol: as §3, §4
as §5, with “dura. […]” for “dura.”
Footage captured under the 488 nm filter was evaluated for fluorescence intensity from FITC-labelled albumin measured in three distinct regions within the vessel (venular intensity) and outside the vessel walls (perivenular intensity) (FIGS. 3A and 3B). […]

[7] = test system: CD1 mice, controlled cortical impact (CCI) severe TBI model; experiment: Morris water maze spatial learning trials; type: in vivo; conditions: ±SEM
Protocol: as §1, with “Controlled cortical impact settings (3-mm-diameter impactor tip, impact velocity of 6 m/s, and cortical deformation depth of 1 mm) replicated severe TBI (Smith et al., J Neurotrauma. 1995; 12(2):169-178). Rodents were then randomly allocated to receive either: (1) intravenous (via femoral vein) pharmaceutical grade AT-III (250 IU/kg, donated by Grifols S. A., Durham, N.C.) or (2) an equal volume of normal saline IV (0.9% NS; Baxter; Deerfield, Ill.) as a vehicle (VEH).” left out, “23(6):583-590). […]” for “23(6):583-590).”
as §2, with “87(3):552-558).” for “87(3):552-558). After a recovery period of 6 days, each animal underwent daily. MWM trials of learning and memory for 9 consecutive days.”
On postcraniotomy days 9 to 13, daily spatial learning trials evaluated the animals' ability to use environmental visual cues to locate and reach the platform. […]

[8] = test system: CD1 mice, controlled cortical impact (CCI) severe TBI model; experiment: Morris water maze probe trials (long-term memory); type: in vivo; conditions: days 10 to 14 post-TBI, CCI mice vs CCI-VEH
Protocol: Experimental procedures were conducted with the approval of the University of Pennsylvania Institutional Animal Care and Use Committee. CD1 adult male mice (25-30 g) (Charles River Laboratories, Wilmington, Mass.) were acclimatized in standard housing with water and chow ad libitum for 7 days before experiments after which they underwent sham craniotomy or craniotomy accompanied by controlled cortical impact (CCI), a well-validated severe TBI rodent model (Pascual et al., Am J Surg. 2013;206(6):840-846; Smith et al., J Neurotrauma. 1995; 12(2):169-178). […] Doses were administered 0.5 and 24 hours after CCI (FIG. 1) as determined by previous published reports and the manufacturer's recommendations (ElSaadani et al., J Trauma Acute Care Surg. 2021; 90(2):274-280; Uchiba et al., Thromb Res. 1998; 89(5):233-241; Uchiba et al., Semin Thromb Hemost. 1997; 23(6):583-590). […]
as §2, with “87(3):552-558).” for “87(3):552-558). After a recovery period of 6 days, each animal underwent daily. MWM trials of learning and memory for 9 consecutive days.”

Row | Substance | time to reach the exposed platform, course over days ([1]; cued learning trials, compared with SHAM) | swimming velocity ([1]; cued learning trials, days 6-8 post-TBI, ±SEM) | mean time to reach the platform ([1]; cued learning trials, ±SEM) | cumulative cued learning (overall mean group time to reach the platform) ([1]; throughout days 6 to 8 post-TBI, ±SEM) | Contralateral (%) Mean brain water content [2] | Contralateral (%) Median brain water content [2] | Ipsilateral (%) Mean brain water content [2] | Ipsilateral (%) Median brain water content [2] | Ratio (ipsi/contra) brain water content [2] | cerebral edema as compared to CCI+VEH [2] | GNT score (stroke functional recovery score) [3] | Body weight loss [4] | LEU adhesion [5] | LEU transit [5] | Cerebrovascular FITC-albumin leakage [6] | decrease of macromolecular leakage (blood brain barrier integrity) ([6]; pial vessels, vs untreated injured) | mean group cumulative swimming time ([7]; all 5 days of spatial learning trials, CCI mice) | swimming time (time to reach platform) ([7]; day 13, last day of spatial learning trials, CCI mice) | overall swim distance ([7]; spatial learning trials, days 9 to 13, CCI mice) | cognitive recovery: memory [8]
1 | antithrombin-III [AT-III] | eventually reached SHAM times by day 7 | 28.4 ± 1.1 cm/s | 20.1 ± 3.1 s | 20.3 ± 2.1 s | 75.12% | 77.7% | 77.64% | 78.6192% | 1.033 | did not significantly reduce cerebral edema | 13.1±0.3 | 8.4±1% | 3.2±0.5 LEUs/100 um/min | 24.8±2.1 LEUs/100 um/min | 41.9±2.8% | more than 25% | 17.6 ± 1.5 s | 17.6 ± 3.9 s | 306.9±27.9 cm | not memory
2 | enoxaparin [ENX, reference compound] | – | – | – | – | 77.26% | 77.38% | 78.3674% | 79.03% | 1.014 | did not significantly reduce cerebral edema | 12.4±0.4 | – | 3.5±0.8 LEUs/100 um/min | 24.9±2.8 LEUs/100 um/min | 49.1±2.3% | – | – | – | – | –
